Patent US10590140B2, “Tetrahydropyrimidodiazepine and dihydropyridodiazepine compounds for treating pain and pain related conditions” (ESTEVE PHARMACEUTICALS, S.A., priority 2016, dated 2020)

biological target: human α2δ-1 subunit of Cav2.2 calcium channel (Homo sapiens (Human), UniProt P54289); assay: Binding assay to human α2δ-1 subunit of Cav2.2 calcium channel ([3H]-Gabapentin); conditions: binding to α2δ-1, [3H]-Gabapentin; read-out: Ki (nM) α2δ-1
Summary of the method: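 Radioactivity on dried GF/C filters quantified by scintillation after filtration and three cold Tris-HCl (pH 7.4) washes. Incubation ran 60 min at 27° C with [3H]-gabapentin; 10 μM pregabalin gave nonspecific binding.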

Sequence of human α2δ-1 subunit of Cav2.2 calcium channel (P54289 25-1103): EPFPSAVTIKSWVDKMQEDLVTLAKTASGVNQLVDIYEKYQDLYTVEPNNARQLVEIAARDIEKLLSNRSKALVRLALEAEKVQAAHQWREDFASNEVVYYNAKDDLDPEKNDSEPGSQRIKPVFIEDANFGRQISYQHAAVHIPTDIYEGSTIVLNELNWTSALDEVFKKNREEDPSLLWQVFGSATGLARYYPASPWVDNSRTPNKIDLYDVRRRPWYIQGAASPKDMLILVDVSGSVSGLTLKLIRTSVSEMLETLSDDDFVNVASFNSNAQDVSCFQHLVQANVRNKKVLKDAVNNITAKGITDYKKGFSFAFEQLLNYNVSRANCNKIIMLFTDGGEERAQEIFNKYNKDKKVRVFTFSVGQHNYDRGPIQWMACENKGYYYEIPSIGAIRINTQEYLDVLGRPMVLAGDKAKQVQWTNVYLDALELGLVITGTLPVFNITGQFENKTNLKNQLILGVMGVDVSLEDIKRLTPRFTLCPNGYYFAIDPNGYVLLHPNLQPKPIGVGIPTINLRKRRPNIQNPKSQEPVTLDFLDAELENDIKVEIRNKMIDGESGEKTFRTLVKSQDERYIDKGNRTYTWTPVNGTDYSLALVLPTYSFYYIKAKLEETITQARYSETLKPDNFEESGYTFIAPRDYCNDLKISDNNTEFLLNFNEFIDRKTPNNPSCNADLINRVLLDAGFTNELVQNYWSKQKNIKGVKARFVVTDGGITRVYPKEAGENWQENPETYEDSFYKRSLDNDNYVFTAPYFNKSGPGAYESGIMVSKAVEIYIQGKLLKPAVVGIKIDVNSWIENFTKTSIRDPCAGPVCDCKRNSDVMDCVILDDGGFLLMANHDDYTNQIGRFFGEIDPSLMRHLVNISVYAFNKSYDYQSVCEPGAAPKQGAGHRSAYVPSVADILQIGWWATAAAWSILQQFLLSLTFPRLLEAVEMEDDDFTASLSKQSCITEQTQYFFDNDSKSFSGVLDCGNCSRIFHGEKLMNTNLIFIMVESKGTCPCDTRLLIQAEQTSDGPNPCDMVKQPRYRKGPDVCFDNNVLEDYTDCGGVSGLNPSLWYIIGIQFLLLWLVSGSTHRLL

CSc1ncc2c(n1)N(C)CCN(c1cccc(CCN(C)C(=O)OC(C)(C)C)c1)C2=O [Example 24, tert-butyl methyl(3-(9-methyl-2-(methylthio)-5-oxo-5,7,8,9-tetrahydro-6H-pyrimido[4,5-e][1,4]diazepin-6-yl)phenethyl) carbamate] and CSc1ncc2c(n1)N(C)CCN(c1cccc(COC(C)CCN(C)C(=O)OC(C)(C)C)c1)C2=O (stereo not shown) [Example 50, tert-butyl methyl(3-((3-(9-methyl-2-(methylthio)-5-oxo-5,7,8,9-tetrahydro-6H-pyrimido[4,5-e][1,4]diazepin-6-yl)benzyl)oxy)butyl) carbamate] cannot be ordered by Ki: greater than 3000 nM for the first, greater than 3000 nM for the second.

First: CCNc1ncc2c(n1)N(C)CCN(c1cccc(CCCNC)c1)C2=O [Example 171, 2-(ethylamino)-9-methyl-6-(3-(3-(methylamino)propyl)phenyl)-6,7,8,9-tetrahydro-5H-pyrimido[4,5-e][1,4]diazepin-5-one]
Second: CCNc1ncc2c(n1)N(C)CCN(c1cccc(CNC)c1)C2=O [Example 174, 2-(ethylamino)-9-methyl-6-(3-((methylamino)methyl)phenyl)-6,7,8,9-tetrahydro-5H-pyrimido[4,5-e][1,4]diazepin-5-one]
The Ki of the first is lower: 100 to 500 nM for the first, 500 to 3000 nM for the second. The first binds more tightly here.

CCNc1ncc2c(n1)N(C)CCN(c1cccc(-n3cc(CN4CCN(c5ccccc5)CC4)nn3)c1)C2=O [Example 280, 2-(ethylamino)-9-methyl-6-(3-(4-((4-phenylpiperazin-1-yl)methyl)-1H-1,2,3-triazol-1-yl)phenyl)-6,7,8,9-tetrahydro-5H-pyrimido[4,5-e] [1,4]diazepin-5-one] and CCNc1ncc2c(n1)N(C)CCN(c1cccc(C3CCN(Cc4ccccc4)CC3)c1)C2=O [Example 259, 6-(3-(1-benzylpiperidin-4-yl)phenyl)-2-(ethylamino)-9-methyl-6,7,8,9-tetrahydro-5H-pyrimido[4,5-e][1,4]diazepin-5-one] fall in the same range of Ki: 100 to 500 nM for the first, 100 to 500 nM for the second.

CSc1ncc2c(n1)N(C)CCN(c1cccc(COC(CN(C)C(=O)OCC[Si](C)(C)C)c3ccccc3)c1)C2=O (stereo not shown) [Example 19, 2-(trimethyl-silyl)ethyl methyl(2-((3-(9-methyl-2-(methylthio)-5-oxo-5,7,8,9-tetrahydro-6H-pyrimido[4,5-e][1,4]diazepin-6-yl)benzyl)oxy)-2-phenylethyl) carbamate] and CSc1ncc2c(n1)N(C)CCN(c1cccc(COC(CCN(C)C(=O)OC(C)(C)C)c3ccccc3)c1)C2=O (stereo not shown) [Example 9, tert-butyl methyl(3-((3-(9-methyl-2-(methylthio)-5-oxo-5,7,8,9-tetrahydro-6H-pyrimido[4,5-e][1,4]diazepin-6-yl)benzyl)oxy)-3-phenylpropyl) carbamate] cannot be ordered by Ki: greater than 3000 nM for the first, greater than 3000 nM for the second.

CSc1ncc2c(n1)N(C)CCN(c1ccccc1OC(CCN(C)C(=O)OC(C)(C)C)c1ccccc1)C2=O (stereo not shown) [Example 48, tert-butyl methyl(3-(2-(9-methyl-2-(methylthio)-5-oxo-5,7,8,9-tetrahydro-6H-pyrimido [4,5-e][1,4]diazepin-6-yl)phenoxy)-3-phenylpropyl) carbamate] and CCNc1ncc2c(n1)N(C)CCN(c1cccc(O[C@@H](CCN(C)C(=O)OC(C)(C)C)c3ccccc3)c1)C2=O [Example 71, tert-butyl (S)-(3-(3-(2-(ethylamino)-9-methyl-5-oxo-5,7,8,9-tetrahydro-6H-pyrimido[4,5-e][1,4]diazepin-6-yl)phenoxy)-3-phenylpropyl)(methyl) carbamate] cannot be ordered by Ki: greater than 3000 nM for the first, greater than 3000 nM for the second.

CNCC(OCc1ccccc1CN1CCN(C)c2nc(SC)ncc2C1=O)c1ccccc1 (stereo not shown) [Example 373, 9-methyl-6-(2-((2-(methylamino)-1-phenylethoxy)methyl)benzyl)-2-(methylthio)-6,7,8,9-tetrahydro-5H-pyrimido[4,5-e][1,4]diazepin-5-one] and CSc1ncc2c(n1)N(C)CCN(c1cccc(OCCCN(Cc3ccccc3)C(=O)OC(C)(C)C)c1)C2=O [Example 21, tert-butyl benzyl(3-(3-(9-methyl-2-(methylthio)-5-oxo-5,7,8,9-tetrahydro-6H-pyrimido[4,5-e][1,4]diazepin-6-yl)phenoxy)propyl) carbamate] cannot be ordered by Ki: greater than 3000 nM for the first, greater than 3000 nM for the second.

CN(CCC(OCc1cccc(N2CCN(C)c3cc(Cl)ncc3C2=O)c1)c1ccccc1)C(=O)OC(C)(C)C (stereo not shown) [Example 300, tert-butyl (3-((3-(8-chloro-1-methyl-5-oxo-1,2,3,5-tetrahydro-4H-pyrido[4,3-e][1,4]diazepin-4-yl)benzyl)oxy)-3-phenylpropyl)(methyl) carbamate] and CCNc1ncc2c(n1)N(C)CCN(c1cccc(COC(CCN(C)C(=O)OC(C)(C)C)C(C)C)c1)C2=O (stereo not shown) [Example 126, tert-butyl (3-((3-(2-(ethylamino)-9-methyl-5-oxo-5,7,8,9-tetrahydro-6H-pyrimido[4,5-e][1,4]diazepin-6-yl)benzyl)oxy)-4-methylpentyl)(methyl) carbamate] cannot be ordered by Ki: greater than 3000 nM for the first, greater than 3000 nM for the second.

Cc1nnc(-c2cccc(N3CCN(C)c4nc(N)ncc4C3=O)c2)o1 [Example 101, 2-amino-9-methyl-6-(3-(5-methyl-1,3,4-oxadiazol-2-yl)phenyl)-6,7,8,9-tetrahydro-5H-pyrimido[4,5-e][1,4]diazepin-5-one] and CCNc1ncc2c(n1)N(C)CCN(c1cccc(-c3nnc(C)o3)c1)C2 [Example 66, N-ethyl-9-methyl-6-(3-(5-methyl-1,3,4-oxadiazol-2-yl)phenyl)-6,7,8,9-tetrahydro-5H-pyrimido[4,5-e][1,4]diazepin-2-amine] fall in the same range of Ki: 500 to 3000 nM for the first, 500 to 3000 nM for the second.

First: CCNc1ncc2c(n1)N(C)CCN(c1cccc(C3CCN(C(=O)OC(C)(C)C)CC3)c1)C2=O [Example 234, tert-Butyl 4-(3-(2-(ethylamino)-9-methyl-5-oxo-5,7,8,9-tetrahydro-6H-pyrimido[4,5-e][1,4]diazepin-6-yl)phenyl)piperidine-1-carboxylate]
Second: CCNc1ncc2c(n1)N(C)CCN(c1cccc(C3CCN(C)CC3)c1)C2=O [Example 260, 2-(ethylamino)-9-methyl-6-(3-(1-methylpiperidin-4-yl)phenyl)-6,7,8,9-tetrahydro-5H-pyrimido[4,5-e][1,4]diazepin-5-one]
The Ki of the first is higher: greater than 3000 nM for the first, 100 to 500 nM for the second. The second binds more tightly here.

First: CCNc1ncc2c(n1)N(C)CCN(c1cccc(Br)c1)C2=O [Example 112, 6-(3-bromophenyl)-2-(ethylamino)-9-methyl-6,7,8,9-tetrahydro-5H-pyrimido[4,5-e][1,4]diazepin-5-one]
Second: CCNc1ncc2c(n1)N(C)CCN(c1cccc(COC(CCNC)C(C)C)c1)C2=O (stereo not shown) [Example 189, 2-(ethylamino)-9-methyl-6-(3-(((4-methyl-1-(methylamino)pentan-3-yl)oxy)methyl)phenyl)-6,7,8,9-tetrahydro-5H-pyrimido[4,5-e][1,4]diazepin-5-one]
The Ki of the first is higher: greater than 3000 nM for the first, 500 to 3000 nM for the second.

CSc1ncc2c(n1)N(C)CCN(c1cccc(-n3cc(CN(C)C(=O)OC(C)(C)C)nn3)c1)C2=O [Example 39, tert-butyl methyl((1-(3-(9-methyl-2-(methylthio)-5-oxo-5,7,8,9-tetrahydro-6H-pyrimido[4,5-e][1,4]diazepin-6-yl)phenyl)-1H-1,2,3-triazol-4-yl)methyl) carbamate] and CSc1ncc2c(n1)N(C)CCN(c1cccc(O[Si](C)(C)C(C)(C)C)c1)C2=O [Example 34, 6-(3-((tert-butyldimethyl-silyl)oxy)phenyl)-9-methyl-2-(methylthio)-6,7,8,9-tetrahydro-5H-pyrimido[4,5-e][1,4]diazepin-5-one] cannot be ordered by Ki: greater than 3000 nM for the first, greater than 3000 nM for the second.
